The values below are quoted from earlier work in US20090193593A1, “METHOD FOR REFRESHING FABRIC ARTICLES” (priority 2008, published 2009).

Where a name gives a salt, the structure may show the parent alone.

On to `OCCOc1ccccc1` [2-phenoxyethanol], for which the Solubility in water result is “about 2.67%”.

Take `OCCc1ccccc1` [2-phenylethanol]: the Solubility in water entry is “about 2%”.

In the case of `OCc1ccccc1` [benzyl alcohol], the Solubility in water entry was “about 4%”.

As to `[H]/N=C(\N/C(=N/[H])NCCCCCCNC(=N)NC(=N)Nc1ccc(Cl)cc1)Nc1ccc(Cl)cc1` [chlorhexidine diacetate salt, 1,1′-hexamethylene bis(5-(p-chlorophenyl)biguanide), reference compound], the Solubility in water result is recorded as “about 1.8%”.

In the case of `[H]/N=C(\N/C(=N/[H])NCCCCCCNC(=N)NC(=N)Nc1ccc(Cl)cc1)Nc1ccc(Cl)cc1` [chlorhexidine digluconate salt, 1,1′-hexamethylene bis(5-(p-chlorophenyl)biguanide), reference compound], the Solubility in water entry is recorded as “about 70%”.
